Reference: publication PMC3199943, “Screening the MayBridge Rule of 3 Fragment Library for Compounds That Interact with the Trypanosoma brucei myo-Inositol-3-Phosphate Synthase and/or Show Trypanocidal Activity” (Molecular Biology International, 2011)
Counter-ions that a name gives are not always drawn.

These compounds were tested on HeLa cells (assay: cells). Conditions: Homo sapiens, HeLa, 65 h, read-out: HeLa Cells Alamar Blue.
Procedure: (§1) Cytotoxic effects against HeLa and A549 cells were determined in a similar manner. Briefly, the cells were cultured in DMEM supplemented with 10% FCS and 2 mM L-Glutamine. Cells were plated at initial cell concentration of 2 × 10^4 cells/well and incubated with the compounds for ~65 hours prior to addition of Alamar Blue solution for a further 5 hours.

Compound	viability at 500 µM
Nc1ccncc1 [compound 2, pyridin‐4‐amine]	103 ± 2.2%
N#CN1CCCC1 [compound 3, pyrrolidine‐1‐carbonitrile]	88.5 ± 1.3%
Cc1cc(C)on1 [compound 4, 3,5‐dimethylisoxazole]	108 ± 5.3%
Cc1cc(N)on1 [compound 10, 3‐methylisoxazol‐5‐amine]	66 ± 4.6%
Cc1cc(C)n(C)n1 [compound 24, 1,3,5‐trimethyl‐1H‐pyrazole]	99.7 ± 11.5%
CCc1nc(C)c[nH]1 [compound 25, 2‐ethyl‐4‐methyl‐1H‐imidazole]	98 ± 7.8%
Cc1noc(N)c1C [compound 32, 3,4‐dimethylisoxazol‐5‐amine]	76.4 ± 5.7%
Cc1cc(CN)no1 [compound 33, (5‐methyl‐3‐isoxazolyl)methylamine]	64.3 ± 18.4%
Cn1ccnc1CO [compound 34, (1‐methyl‐1H‐imidazol‐2‐yl)methanol]	97 ± 14%
OCC1CCNCC1 [compound 40, 4‐piperidylmethanol]	84.3 ± 9%
OCC1CCOCC1 [compound 43, tetrahydro‐2H‐pyran‐4‐ylmethanol]	91.9 ± 5.9%
OC1CCSCC1 [compound 47, tetrahydro‐2H‐thiopyran‐4‐ol]	95 ± 10%
Clc1ccsc1 [compound 48, 3‐chlorothiophene]	95.5 ± 2%
c1ccc2c(c1)CCO2 [compound 49, 2,3‐dihydrobenzo[b]furan]	102 ± 8.6%
N#CCCn1cccc1 [compound 50, 3‐(1H‐pyrrol‐1‐yl)propanenitrile]	75.4 ± 6.4%
Cc1cccc(N)c1N [compound 55, 3‐methylbenzene‐1,2‐diamine]	11.2 ± 7.2%
CNCc1cccnc1 [compound 57, N‐methyl‐N‐(3‐pyridylmethyl)amine]	89.3 ± 9.6%
O=C(O)c1ccccn1 [compound 58, 2‐pyridinecarboxylic acid]	87.3 ± 6.1%
O=C(O)c1ccncc1 [compound 60, isonicotinic acid]	98.3 ± 12.5%

Compound	viability at 500 µM
Cc1cccc(CO)n1 [compound 62, (6‐methylpyridin‐2‐yl)methanol]	98.6 ± 7.3%
OCCc1cccnc1 [compound 63, 2‐(3‐pyridyl)ethan‐1‐ol]	105 ± 13.1%
N#Cc1ccsc1N [compound 68, 2‐aminothiophene‐3‐carbonitrile]	102 ± 3.1%
Cn1cccc1C(=O)O [compound 69, 1‐methyl‐1H‐pyrrole‐2‐carboxylic acid]	95.3 ± 2.5%
NCc1cccc(F)c1 [compound 70, 3‐fluorobenzylamine]	104 ± 17.4%
NCc1ccc(F)cc1 [compound 71, 4‐fluorobenzylamine]	93.3 ± 10.3%
CC(=O)c1nccs1 [compound 79, 1‐(1,3‐thiazol‐2‐yl)ethan‐1‐one]	103 ± 16.6%
NC(=O)c1cccs1 [compound 80, thiophene‐2‐carboxamide]	106 ± 17.5%
O=C(O)c1cccs1 [compound 85, thiophene‐2‐carboxylic acid]	100 ± 7.4%
O=C(O)C1CCOCC1 [compound 92, tetrahydro‐2H‐pyran‐4‐carboxylic acid]	78.4 ± 15.8%
Cc1cccc2cc[nH]c12 [compound 95, 7‐methyl‐1H‐indole]	11.9 ± 8.8%
Nc1ccc2[nH]ncc2c1 [compound 101, 1H‐indazol‐5‐amine]	31.7 ± 16.2%
FC(F)(F)c1cc[nH]n1 [compound 114, 3‐(trifluoromethyl)‐1H‐pyrazole]	85.9 ± 6.1%
Cc1ccc(CO)cc1C [compound 119, (3,4‐dimethylphenyl)methanol]	84.7 ± 15.3%
NCCOc1ccccc1 [compound 122, 2‐phenoxyethylamine]	73.6 ± 5.4%
CC(=O)c1cccc(F)c1 [compound 125, 1‐(3‐fluorophenyl)ethan‐1‐one]	83 ± 14.8%
Cc1nc(CCN)cs1 [compound 141, 2‐(2‐methyl‐1,3‐thiazol‐4‐yl)ethylamine]	98.9 ± 7.6%
c1ccc(-c2c[nH]cn2)cc1 [compound 149, 4‐phenyl‐1H‐imidazole]	80.2 ± 11.7%
c1ccc(-c2cc[nH]n2)cc1 [compound 150, 3‐phenyl‐1H‐pyrazole]	74.6 ± 17.7%

Compound	viability at 500 µM
CN1CCN(C)C(CO)C1 (centres unmarked) [compound 154, (1,4‐dimethyl‐2‐piperazinyl)methanol]	96.9 ± 6.4%
Cn1ccc2cc(N)ccc21 [compound 158, 1‐methyl‐1H‐indol‐5‐amine]	12.5 ± 9.1%
NCc1ccc2occc2c1 [compound 165, 1‐benzofuran‐5‐ylmethylamine]	92.6 ± 8.6%
OCc1cc2ccccc2o1 [compound 167, 1‐benzofuran‐2‐ylmethanol]	84.9 ± 19.3%
Cc1ccc(O)c2c1CCC2 [compound 173, 7‐methylindan‐4‐ol]	43.2 ± 15.6%
Cc1ccc(C(N)=O)cc1C [compound 177, 3,4‐dimethylbenzamide]	81.7 ± 16.8%
CC(C)(C)c1ccc(N)cc1 [compound 178, 4‐(tert‐butyl)aniline]	109 ± 18.8%
CC(C)(C)c1cccc(N)c1 [compound 179, 3‐(tert‐butyl)aniline]	99.3 ± 14.7%
OCC1Cc2ccccc2O1 (centres unmarked) [compound 187, 2,3‐dihydro‐1‐benzofuran‐2‐ylmethanol]	94.3 ± 13.3%
NC(=O)Cc1ccc(O)cc1 [compound 192, 2‐(4‐hydroxyphenyl)acetamide]	96.9 ± 9.5%
CNCc1ccc(OC)cc1 [compound 199, N‐(4‐methoxybenzyl)‐N‐methylamine]	95.1 ± 15.3%
OCc1ccc2c(c1)OCO2 [compound 200, 1,3‐benzodioxol‐5‐ylmethanol]	85.2 ± 9.3%
O=C1CCC2CC1CCC2=O [compound 206, bicyclo[3.3.1]nonane‐2,6‐dione]	80.8 ± 7.6%
N#CC1(O)CN2CCC1CC2 (centres unmarked) [compound 208, 3‐hydroxyquinuclidine‐3‐carbonitrile]	99.4 ± 11.2%
OC12CC3CC(CC(C3)C1)C2 [compound 209, adamantan‐1‐ol]	92.2 ± 6.7%
CC(=O)Nc1ccccc1F [compound 212, N1‐(2‐fluorophenyl)acetamide]	80.6 ± 6.6%
COc1ccc(N)c(OC)c1 [compound 213, 2,4‐dimethoxyaniline]	14 ± 8.2%
CSc1ccccc1CN [compound 217, 2‐(methylthio)benzylamine]	27.1 ± 0.5%
O=C(O)Cc1ccc(F)cc1 [compound 219, 2‐(4‐fluorophenyl)acetic acid]	94.3 ± 13.4%

Same assay, conditions: Homo sapiens, HeLa, 65 h, read-out: HeLa Cells Alamar Blue (% survival), compound 0.5 mM; percentage of controls

Compound	viability at 500 µM
O=C(O)C1CCCNC1 (centres unmarked) [compound 91, 3-piperidinecarboxylic acid]	76.6 ± 29.1%

Same assay, conditions: Homo sapiens, HeLa, 65 h, read-out: HeLa Cells Alamar Blue, Supplementary Table 1; compound 0.5 mM; percentage of controls; mean ± SD (n=3) or SE (n=2)

Compound	viability at 500 µM
O=C(O)C1CCCNC1 (centres unmarked) [compound 91, 3-piperidinecarboxylic acid]	76.6 ± 29.1%
COc1ccc(CC#N)cc1 [compound 161, 2‐(4‐methoxyphenyl)acetonitrile]	108 ± 3.1%

Same assay, conditions: Homo sapiens, HeLa, read-out: HeLa ED50

Compound	CC50
Nc1ccccc1N [269a, benzene-1,2-diamine]	32.9 ± 2.5 µM
Nc1ccc(Cl)c(F)c1 [269b]	1400 ± 100 µM
Nc1ccc(Cl)cc1N [269c]	224 ± 35 µM
Fc1cc2nc[nH]c2cc1Cl [269d]	520 ± 52 µM
Nc1ccccc1O [269e, 2-amino-phenol]	68.2 ± 3.2 µM
COc1ccc(N)c(OC)c1 [compound 213, 2,4‐dimethoxyaniline]	710 ± 96 µM

Same assay, conditions: Supplementary Table 1; compound 0.5 mM; percentage of controls; mean ± SD (n=3) or SE (n=2)

Compound	HeLa Cells Alamar Blue
Cc1cc(CN)n(C)n1 [compound 73, (1,3‐dimethyl‐1H‐pyrazol‐5‐yl)methylamine]	91.3 ± 0.6 percentage of controls

The compounds below were run on A549 cells (assay: Cytotoxicity against A549 cells, Alamar Blue). Conditions: Homo sapiens, A549, 65 h; Supplementary Table 1; compound 0.5 mM; percentage of controls (n=1).
Assay type: cell-based
Procedure: as §1

Compound	viability at 500 µM
Nc1ccncc1 [compound 2, pyridin‐4‐amine]	106%
N#CN1CCCC1 [compound 3, pyrrolidine‐1‐carbonitrile]	115%
Cc1cc(C)on1 [compound 4, 3,5‐dimethylisoxazole]	123%
Cc1cc(N)on1 [compound 10, 3‐methylisoxazol‐5‐amine]	87.2%
Cc1cc(C)n(C)n1 [compound 24, 1,3,5‐trimethyl‐1H‐pyrazole]	88.5%
CCc1nc(C)c[nH]1 [compound 25, 2‐ethyl‐4‐methyl‐1H‐imidazole]	83.9%
Cc1noc(N)c1C [compound 32, 3,4‐dimethylisoxazol‐5‐amine]	71.7%
Cc1cc(CN)no1 [compound 33, (5‐methyl‐3‐isoxazolyl)methylamine]	75.6%
Cn1ccnc1CO [compound 34, (1‐methyl‐1H‐imidazol‐2‐yl)methanol]	72.1%
OCC1CCNCC1 [compound 40, 4‐piperidylmethanol]	104%
OCC1CCOCC1 [compound 43, tetrahydro‐2H‐pyran‐4‐ylmethanol]	79.2%
COC(=O)C1NCCS1 (centres unmarked) [compound 44, methyl 1,3-thiazolane-2-carboxylate hydrochloride]	87%
OC1CCSCC1 [compound 47, tetrahydro‐2H‐thiopyran‐4‐ol]	74.9%
Clc1ccsc1 [compound 48, 3‐chlorothiophene]	101%
c1ccc2c(c1)CCO2 [compound 49, 2,3‐dihydrobenzo[b]furan]	87.3%
N#CCCn1cccc1 [compound 50, 3‐(1H‐pyrrol‐1‐yl)propanenitrile]	140%
Cc1cccc(N)c1N [compound 55, 3‐methylbenzene‐1,2‐diamine]	26.5%
CNCc1cccnc1 [compound 57, N‐methyl‐N‐(3‐pyridylmethyl)amine]	79%
O=C(O)c1ccccn1 [compound 58, 2‐pyridinecarboxylic acid]	97.9%
O=C(O)c1ccncc1 [compound 60, isonicotinic acid]	118%

Compound	viability at 500 µM
Cc1cccc(CO)n1 [compound 62, (6‐methylpyridin‐2‐yl)methanol]	67.5%
OCCc1cccnc1 [compound 63, 2‐(3‐pyridyl)ethan‐1‐ol]	76.9%
N#Cc1ccsc1N [compound 68, 2‐aminothiophene‐3‐carbonitrile]	136%
Cn1cccc1C(=O)O [compound 69, 1‐methyl‐1H‐pyrrole‐2‐carboxylic acid]	70.2%
NCc1cccc(F)c1 [compound 70, 3‐fluorobenzylamine]	104%
NCc1ccc(F)cc1 [compound 71, 4‐fluorobenzylamine]	110%
CC(=O)c1nccs1 [compound 79, 1‐(1,3‐thiazol‐2‐yl)ethan‐1‐one]	94.5%
NC(=O)c1cccs1 [compound 80, thiophene‐2‐carboxamide]	90.3%
O=C(O)c1cccs1 [compound 85, thiophene‐2‐carboxylic acid]	119%
O=C(O)C1CCCNC1 (centres unmarked) [compound 91, 3-piperidinecarboxylic acid]	103%
O=C(O)C1CCOCC1 [compound 92, tetrahydro‐2H‐pyran‐4‐carboxylic acid]	118%
Cc1cccc2cc[nH]c12 [compound 95, 7‐methyl‐1H‐indole]	13.4%
Nc1ccc2[nH]ncc2c1 [compound 101, 1H‐indazol‐5‐amine]	70.6%
FC(F)(F)c1cc[nH]n1 [compound 114, 3‐(trifluoromethyl)‐1H‐pyrazole]	73.8%
Cc1ccc(CO)cc1C [compound 119, (3,4‐dimethylphenyl)methanol]	124%
NCCOc1ccccc1 [compound 122, 2‐phenoxyethylamine]	100%
CC(=O)c1cccc(F)c1 [compound 125, 1‐(3‐fluorophenyl)ethan‐1‐one]	101%
Cc1nc(CCN)cs1 [compound 141, 2‐(2‐methyl‐1,3‐thiazol‐4‐yl)ethylamine]	105%
c1ccc(-c2c[nH]cn2)cc1 [compound 149, 4‐phenyl‐1H‐imidazole]	99.1%
c1ccc(-c2cc[nH]n2)cc1 [compound 150, 3‐phenyl‐1H‐pyrazole]	82%

Compound	viability at 500 µM
CN1CCN(C)C(CO)C1 (centres unmarked) [compound 154, (1,4‐dimethyl‐2‐piperazinyl)methanol]	117%
Cn1ccc2cc(N)ccc21 [compound 158, 1‐methyl‐1H‐indol‐5‐amine]	59.3%
COc1ccc(CC#N)cc1 [compound 161, 2‐(4‐methoxyphenyl)acetonitrile]	88.7%
NCc1ccc2occc2c1 [compound 165, 1‐benzofuran‐5‐ylmethylamine]	90.7%
OCc1cc2ccccc2o1 [compound 167, 1‐benzofuran‐2‐ylmethanol]	78.2%
Cc1ccc(O)c2c1CCC2 [compound 173, 7‐methylindan‐4‐ol]	53.7%
Cc1ccc(C(N)=O)cc1C [compound 177, 3,4‐dimethylbenzamide]	64.2%
CC(C)(C)c1ccc(N)cc1 [compound 178, 4‐(tert‐butyl)aniline]	87.6%
CC(C)(C)c1cccc(N)c1 [compound 179, 3‐(tert‐butyl)aniline]	77.9%
OCC1Cc2ccccc2O1 (centres unmarked) [compound 187, 2,3‐dihydro‐1‐benzofuran‐2‐ylmethanol]	50.5%
NC(=O)Cc1ccc(O)cc1 [compound 192, 2‐(4‐hydroxyphenyl)acetamide]	44.6%
CNCc1ccc(OC)cc1 [compound 199, N‐(4‐methoxybenzyl)‐N‐methylamine]	71%
OCc1ccc2c(c1)OCO2 [compound 200, 1,3‐benzodioxol‐5‐ylmethanol]	92.1%
O=C1CCC2CC1CCC2=O [compound 206, bicyclo[3.3.1]nonane‐2,6‐dione]	42.1%
N#CC1(O)CN2CCC1CC2 (centres unmarked) [compound 208, 3‐hydroxyquinuclidine‐3‐carbonitrile]	61.8%
OC12CC3CC(CC(C3)C1)C2 [compound 209, adamantan‐1‐ol]	76.1%
CC(=O)Nc1ccccc1F [compound 212, N1‐(2‐fluorophenyl)acetamide]	65.4%
COc1ccc(N)c(OC)c1 [compound 213, 2,4‐dimethoxyaniline]	61.2%
CSc1ccccc1CN [compound 217, 2‐(methylthio)benzylamine]	70.3%
O=C(O)Cc1ccc(F)cc1 [compound 219, 2‐(4‐fluorophenyl)acetic acid]	98.4%

Same assay, conditions: Supplementary Table 1; compound 0.5 mM; percentage of controls (n=1)

Compound	A549 Cells Alamar Blue
Cc1cc(CN)n(C)n1 [compound 73, (1,3‐dimethyl‐1H‐pyrazol‐5‐yl)methylamine]	107.6 percentage of controls
